Results as given in publication PMC9041313 (RSC Advances, 2021).

Biological target: T1, human MAGL (hMAGL) (Homo sapiens, UniProt Q99685)
T1 sequence (Q99685 1-303): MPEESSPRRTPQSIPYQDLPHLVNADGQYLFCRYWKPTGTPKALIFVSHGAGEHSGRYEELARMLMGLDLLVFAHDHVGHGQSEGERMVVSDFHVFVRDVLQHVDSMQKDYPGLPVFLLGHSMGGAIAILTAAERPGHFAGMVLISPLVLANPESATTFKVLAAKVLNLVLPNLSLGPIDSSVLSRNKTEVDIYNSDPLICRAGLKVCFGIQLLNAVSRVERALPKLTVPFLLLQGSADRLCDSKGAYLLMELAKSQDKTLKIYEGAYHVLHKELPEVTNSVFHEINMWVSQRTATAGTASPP
Experiment: Human MAGL assay
Format: biochemical
Conditions: 10 μM compound concentration

inhibition% against hMAGL: over 40%
Substance: 8-prenylnaringenin [NP-2]
